How the values were obtained:
[1] = target: T1, Lanosterol 14-alpha demethylase (Homo sapiens, UniProt Q16850); assay: Binding affinity for cytochrome P450 14DM; set-up: species or system Saccharomyces cerevisiae
T1 sequence (Q16850 whole entry): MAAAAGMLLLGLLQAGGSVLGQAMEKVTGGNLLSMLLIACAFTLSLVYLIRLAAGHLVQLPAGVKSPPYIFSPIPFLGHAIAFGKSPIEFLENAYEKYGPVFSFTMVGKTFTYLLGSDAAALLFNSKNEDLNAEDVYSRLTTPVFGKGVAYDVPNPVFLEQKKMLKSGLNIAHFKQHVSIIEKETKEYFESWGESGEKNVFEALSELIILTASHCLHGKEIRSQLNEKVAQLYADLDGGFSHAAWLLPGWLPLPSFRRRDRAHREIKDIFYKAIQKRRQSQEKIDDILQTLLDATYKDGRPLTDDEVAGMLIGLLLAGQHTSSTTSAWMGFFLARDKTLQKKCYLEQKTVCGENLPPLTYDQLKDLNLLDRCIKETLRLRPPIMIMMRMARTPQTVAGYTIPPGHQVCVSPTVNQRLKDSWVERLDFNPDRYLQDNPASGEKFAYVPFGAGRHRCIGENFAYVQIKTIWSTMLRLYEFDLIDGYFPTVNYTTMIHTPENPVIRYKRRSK

P45014DM = assay: Photolysis after effective incorporation into P45014DM at 313 nm in phosphate buffer; type: ADME; set-up: dose or concentration left out as unconfirmed; settings: compound incorporated into P45014DM
[2] = Photolysis at 264 nm in phosphate buffer; type: ADME; set-up: dose or concentration left out as unconfirmed
[3] = Specific activity was determined; type: functional; settings: tested as the 3H-labelled form

SMILES	Kd [1] [µM]	half-life (P45014DM) [min]	half-life [2] [min]	Activity [3] [mCi/M]
[N-]=[N+]=Nc1ccc(C(=O)Cn2ccnc2)cc1	18			
[3H]C(O)(Cn1ccnc1)c1ccc(N=[N+]=[N-])cc1 (configuration not stated)		45	2.5	
[N-]=[N+]=Nc1ccc(C(O)Cn2ccnc2)cc1 (configuration not stated)	1.4			26.4
[N-]=[N+]=Nc1ccc(-n2ccnc2)cc1	25			
[N-]=[N+]=Nc1ccc(Cn2ccnc2)cc1	15			

Reference: ChEMBL document CHEMBL1126167, “Synthesis and evaluation of photoaffinity probes directed at lanosterol 14-demethylase (P-45014DM)” (Bioorg Med Chem Lett, 1992)
